# According to paper PMC5118709, “Identification of Polo-like kinase 1 interaction inhibitors using a novel cell-based assay” (Scientific Reports, 2016):
# Several values for one entry are separate records, joined by “and”; a condition that tells them apart may be missing. Identical values can stand only once. Entries after “also recorded” stand apart in the source; their conditions may differ. Where no end group is shown, it is not given here. [ ]: non-standard residue; d: D form. The star is where a group is joined. FITC = O=C1OC2(c3ccc(O)cc3Oc3cc(O)ccc32)c2ccc(NC(=S)*)cc21; pT = C[C@@H](OP(=O)(O)O)[C@H](N)C(=O)O
# B1: FITC-GPMQS{T}PLNG (FITC-labeled PBD-binding phosphopeptide) (peptide)
# peptide: {FITC}-GPMQS[pT]PLNG
# notes: also called FITC-phosphopeptide; source: synthetic peptide (Bio Basic inc., >95% pure)
# B2: FITC-GIAVPDEREFDIEADMRPHEL (Map peptide) (peptide)
# peptide: {FITC}-GIAVPDEREFDIEADMRPHEL
# notes: small peptide derived from Drosophila Map205; also called small peptide derived from Map205 coupled to FITC; source: synthetic peptide (Bio Basic inc., >95% pure)
# B3: unlabeled phosphopeptide GPMQS{T}PLNG (peptide)
# peptide: GPMQS[pT]PLNG
# notes: as m7 but without FITC in N-terminal; also called corresponding unlabeled phosphopeptide; equivalent unlabeled peptide; source: synthetic peptide (Bio Basic inc., >95% pure)
# How the values were obtained:
# [1] = reaction with amino-protected amino acids (LC-MS); conditions: room temperature
# Experimental: Vinyl sulfones are reactive species that can alkylate substrates as a result of a nucleophilic attack on the distal carbon of the vinyl group. To evaluate the potential of Cpd 161 (vinyl sulfone) to react with proteins, we tested its reaction with nucleophilic amino acid side chains groups. […] To test whether Cpd 161 could react covalently with the PBD, we incubated them together and examined the molecular mass of the protein by SDS-PAGE (Fig. 7). […] Consistent with this idea, the extent of the shift depended on the concentration of Cpd 161 used (Fig. 7B) and also on the incubation time (Fig. 7C).
# To a stirred solution of electrophile (0.02 mmol) and amino acid (1- 1.5eq) in DMF (0.3 ml) were added a few drops of a diluted aqueous solution of sodium bicarbonate. The reaction was monitored using an Agilent 6120 Quadrupole LC/MS system (Agilent Technologies). In all cases, the molecular ion of the product was observed.
# His-PBD326-603 [2] = molecular target: T1, His-PBD326-603 (Homo sapiens, UniProt P53350); experiment: alkylation sites on the PBD by LC-MS/MS
# T1 sequence (P53350 326-603): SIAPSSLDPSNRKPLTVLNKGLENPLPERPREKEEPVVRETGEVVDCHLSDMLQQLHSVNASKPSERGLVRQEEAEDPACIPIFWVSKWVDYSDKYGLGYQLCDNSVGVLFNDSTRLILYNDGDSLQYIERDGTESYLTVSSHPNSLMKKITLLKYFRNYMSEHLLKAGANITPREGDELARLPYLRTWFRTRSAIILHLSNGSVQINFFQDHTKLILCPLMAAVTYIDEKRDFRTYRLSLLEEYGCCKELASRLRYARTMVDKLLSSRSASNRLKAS
# Experimental: Proteins were precipitated using acetone and resuspended in 100 μl. Sample reduction was performed by adding 50 μl of 5 mM TCEP in 50 mM ammonium bicarbonate. Samples were then added 50 μl of chloroacetamide 50 mM with ammonium bicarbonate 50 mM to protect exposed cysteine residues. One microgram of trypsin was added and the digestion was performed for 8 h at 37 °C. […] Each full MS spectrum acquired with a 70,000 resolution was followed by 12 MS/MS spectra, where the 12 most abundant multiply charged ions were selected for MS/MS sequencing. Peptides were identified using Peaks 8.0 (Bioinformatics Solution Inc.) and peptide sequences were blasted against the Human Uniprot database. Tolerance was set at 10 ppm for precursor and 0.01 Da for fragment ions during data processing. For the post-translational modification of proteins, occurrence of carbamidomethylation (C), oxidation (M), deamidation (NQ) was considered as well as addition of TQ (C, K), Poloxin (K, C, H), and vinyl sulfone (C, H, K) when needed.
# GST-PBD367-603 of Plk1 = GST-PBD367-603 of Plk1 (Homo sapiens, UniProt P53350); experiment: fluorescence polarization assay PBD-phosphopeptide
# GST-PBD367-603 of Plk1, sequence (P53350 367-603): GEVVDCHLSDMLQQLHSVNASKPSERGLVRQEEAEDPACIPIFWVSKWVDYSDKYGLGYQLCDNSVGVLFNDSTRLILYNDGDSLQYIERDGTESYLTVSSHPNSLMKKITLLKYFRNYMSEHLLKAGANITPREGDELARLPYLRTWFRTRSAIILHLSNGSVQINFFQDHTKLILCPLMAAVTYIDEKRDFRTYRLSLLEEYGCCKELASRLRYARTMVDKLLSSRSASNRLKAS
# Description: In this assay, an optimal phosphopeptide for PBD binding is coupled with a FITC fluorophore and its binding to purified recombinant PBD of Plk1 is monitored by the change in polarization of incident light.
# His-PBD326-603 [3] = molecular target: T1, His-PBD326-603; experiment: covalent reaction with the PBD by SDS-PAGE; parameters: His-PBD326-603 was expressed in E.coli BL21; made in house; host or cells: E. coli BL21; conditions: 2.5 mM, 3-4 h
# Experimental: Vinyl sulfones are reactive species that can alkylate substrates as a result of a nucleophilic attack on the distal carbon of the vinyl group.
# Membranes were blocked with TBS-Tween 0.1% containing 5% of dry milk powder, then incubated with anti-Plk1 (F-8; Santa Cruz Biotechnologies Inc.) or with a 6x-His epitope tag antibody (Invitrogen; gift from Gregory Emery). HRP-conjugated goat anti-mouse IgG (Jackson ImmunoResearch Laboratories inc.) was used and TBS-Tween 0.1% was used for the washes before and after the secondary antibody. […] Gels were imaged using a ChemiDoc MP system (BioRad).
# HeLa cells = experiment: mitotic defect phenotypes by immunofluorescence; type: cell-based; conditions: 10 μM, 7 h
# Experimental: HeLa cells were treated with these compounds along with the known PBD inhibitors PPG, TQ, Poloxin and the KD inhibitor BI2536 as controls, and then stained against α-Tubulin, pericentrin (a centrosome marker) and DNA (Fig. 2D). In all cases, there was a marked increase in the frequency of disorganized spindles compared with DMSO-treated control cells. This is expected as Plk1 plays multiple roles in spindle assembly and maintenance. […] Cpd 69, an analog of compound 122, induced a similar phenotype at lower concentrations (data not shown). This phenotype was not seen after treatment with BI2536.
# For the mitotic defect phenotypes, 25 200 HeLa cells were plated on poly-L-lysine coated round cover slips in 24-well plates. The day after, cells were treated for 7 hours, and then washed with PHEM buffer at 37 °C before fixation in PHEM buffer containing 4% formaldehyde for 20 minutes at 37 °C. Cells were washed three times with TBS-tween 0.1% and plate was kept overnight at 4 °C. Next steps were followed as previously described except that coverslips were incubated in a dark wet chamber with antibodies. Anti-pericentrin (diluted 1:1000; Abcam), anti-α-tubulin DM1A (diluted 1:500; Sigma-Aldrich), Alexa Fluor 488 anti-rabbit and Texas-Red anti-mouse (diluted 1:200; Invitrogen) were used. Coverslips were mounted on slide using Vectashield media containing DAPI (Vector Laboratories).
# Images shown in Fig. 2D were acquired on an AxioImager microscope (Carl Zeiss) with a 100x oil objective (NA 1.4 DICIII) and an AxioCam HRM camera (Carl Zeiss) using AxioVision software (Carl Zeiss).
# PBD of Plk1 = PBD of Plk1 (Homo sapiens, UniProt P53350); experiment: fluorescence polarization assay PBD-Map peptide; type: binding
# PBD of Plk1, sequence (P53350 367-603 limits assumed): as the sequence (P53350 367-603) above
# Experimental: The FP buffer was composed of 10 mM Tris pH 8.0, 50 mM NaCl, 1 mM EDTA, 20% glycerol and 0.1% NP-40. The peptide (final concentration 10 nM) was always added to the wells of non-binding, black, 384-well plates, 1 hour after the addition of the protein with the buffer (+/− treatment, 10% DMSO). […] EC65s were used to perform the competitive assays with the non-labeled peptides and with the inhibitors. FP Inhibition was calculated with the formula: 100 − [((mPsample − mPfree peptide)\(mPDMSO − mPfree peptide)) × 100]. […] (Map peptide), and corresponding non-labeled peptides are identical but without FITC in N-terminal. […] Inhibition curves were fitted with GraphPad (Prism software).
# PBD = tested on: PBD; parameters: method as in PMID 19033445; conditions: cited from earlier work
# mitosis = conditions: cited from earlier work
# Plk1-Map interaction = Plk1-Map interaction (Homo sapiens, UniProt P53350); experiment: LUMIER co-immunoprecipitation assay Plk1-Map
# Plk1-Map interaction, sequence (P53350 whole entry): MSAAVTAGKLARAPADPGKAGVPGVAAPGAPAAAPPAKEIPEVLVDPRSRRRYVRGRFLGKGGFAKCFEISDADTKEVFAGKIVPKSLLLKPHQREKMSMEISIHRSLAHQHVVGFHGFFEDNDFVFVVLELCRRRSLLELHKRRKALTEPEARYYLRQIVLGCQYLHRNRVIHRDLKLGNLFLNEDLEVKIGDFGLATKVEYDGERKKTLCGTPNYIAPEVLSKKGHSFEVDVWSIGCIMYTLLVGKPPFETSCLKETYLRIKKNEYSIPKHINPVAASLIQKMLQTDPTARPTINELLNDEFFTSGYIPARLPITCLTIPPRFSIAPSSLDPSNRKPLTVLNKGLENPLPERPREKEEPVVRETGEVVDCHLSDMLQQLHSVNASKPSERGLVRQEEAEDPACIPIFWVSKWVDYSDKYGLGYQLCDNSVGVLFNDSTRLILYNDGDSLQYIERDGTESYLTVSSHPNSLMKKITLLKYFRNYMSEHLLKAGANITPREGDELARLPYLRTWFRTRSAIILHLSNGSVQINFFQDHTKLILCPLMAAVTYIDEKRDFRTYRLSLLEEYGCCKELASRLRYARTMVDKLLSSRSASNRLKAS
# Experimental: After cell lysis, GFP-Plk1 was immunoprecipitated and co-purified Map-Luc was measured by luminescence following addition of the luciferase substrate, coelenterazine.
# Half a million stably transfected Map205-RLucII/GFP10-Plk1 cells in Tyrode solution were seeded per well in a 96-well plate and allowed to settle for 30 min at 37 °C. […] Plates were then centrifuged at 4 °C at 3000 rpm for 5 minutes to pellet cells. Cells were then lysed with the IP buffer (20 mM Tris pH 7.5, 150 mM NaCl, 2 mM EGTA, 0.5% NP-40, 1 mM DTT, PMSF, aprotinin and leupeptin) and incubated on ice for 20 minutes. Plates were centrifuged again at 4 °C at 3400 rpm for 10 minutes, and the soluble fraction was transferred into a new 96-well plate. Note that 10 μl of this fraction was transferred in white 96-well plates from which the luminescence was read as a measure of the input amount of cell lysate for the co-IP. GFP-Plk1 was immunoprecipitated by adding 0.35 μl of anti-GFP antibody (Invitrogen). Plates were sealed and incubated on a rotator at 4 °C for 30 minutes. Then, 4 μl of pre-washed protein A magnetic beads (Invitrogen) were added to each well. Plates were sealed and incubated at 4 °C for 1h30. The extracts + beads were then transferred in a 96-well PCR plates and beads were washed 3 times with the IP buffer using a magnetic 96-well rack. The fourth wash was done in Tyrode solution, then beads were re-suspended with it and transferred in a white 96-well plate. […] Tyrode was also added to the plates containing the input fraction, then Coelenterazine h was added to the wells, and enhanced luminescence was read as described above.
# human GST-PBD_(367-603) = molecular target: T2, human GST-PBD_(367-603) (human, UniProt P53350 367-603); experiment: fluorescence polarisation; competition: FITC-phosphopeptide 10 nM and GST-PBD 367-603 at 38 nM (EC65), unlabeled phosphopeptide at increasing concentrations; FP buffer; conditions: both partners purified
# T2 construct: also called Polo-Box Domain of Plk1; source: bought: Sigma-Aldrich
# T2 sequence (P53350 367-603): as the sequence (P53350 367-603) above
# [4] = molecular target: T3, Human Plk1 full length protein (human, UniProt P53350 1-603); experiment: fluorescence polarisation; FITC-Map peptide with the PBD or full-length Plk1 (Supplementary Fig. S3); compounds tested up to 100 uM; conditions: both partners purified
# T3 construct: Polo-like kinase 1 (Plk1), human, full length protein; also called full-length Plk1; whole Plk1; source: bought: Abcam
# T3 sequence (P53350 whole entry): as the sequence (P53350 whole entry) above
molecule,measurement,setting,value
"C=CS(=O)(=O)c1cc(C(F)(F)F)cc(C)n1 [Cpd 161, 2-methyl-4-(trifluoromethyl)-6-(vinylsulfonyl) pyridine]",time to completion of reaction with amino-protected cysteine,[1],approximately 10 minutes
same,time to completion of reaction with amino-protected lysine,[1],approximately 10 minutes
same,alkylated residues very near the phosphopeptide binding site,His-PBD326-603 [2],His489; also recorded: Lys492
same,residues of the PBD found alkylated,"His-PBD326-603 [2]; 2.5 mM TQ, 2.5 mM Cpd 161 or 250 μM Poloxin, 3 hours","cysteines, lysines and histidines"
same,IC50,"GST-PBD367-603 of Plk1; FP - IC50 (μM), Table S3",8.3 ± 2.6 µM
same,activity in the FP assay,GST-PBD367-603 of Plk1; SAR,showed the same activity as Cpd 16
same,mobility shift of the PBD in SDS-PAGE,His-PBD326-603 [3],"appeared higher in the gel, a few kDa above the protein treated with DMSO alone"
"O=c1c(O)cccc2cc(O)c(O)c(O)c12 [PPG, purpurogallin, reference compound]",2 > pericentrin foci (percentage of cells),HeLa cells,7 ± 4%
same,Disorganized spindles (percentage of cells),HeLa cells,41 ± 6%
same,disruption of the PBD-Map interaction in FP,PBD of Plk1,disrupted the PBD-Map interaction
same,concentrations active in vitro,PBD,low micromolar concentrations
same,concentrations impacting mitosis,mitosis,high micromolar concentrations
same,Average-Beads (mean luminescence),"Plk1-Map interaction; 10-25 μM, 2 h","301,042"
same,Relative Luminescence Unit,Plk1-Map interaction; mean divided by maximum mean of the compounds,0.351
same,"Luminescence on beads, duplicate wells","Plk1-Map interaction; raw data, 10-25 μM, 2 h","290,044 and 312,040"
same,IC50,"GST-PBD367-603 of Plk1; IC50 in FP, GST-PBD367-603 38 nM, 1 h pre-incubation, FITC-phosphopeptide 10 nM, Fig. 4C",126 µM
"CC1=CC(=O)C(C(C)C)=CC1=O [TQ, Thymoquinone]",2 > pericentrin foci (percentage of cells),HeLa cells,33 ± 9%
same,Disorganized spindles (percentage of cells),HeLa cells,56 ± 8%
same,time to completion of reaction with amino-protected cysteine,[1],approximately 10 minutes
same,concentrations required to disrupt mitosis and induce apoptosis,mitosis,high micromolar concentrations
B1,binding result,human GST-PBD_(367-603),binds
B2,binding result,[4],binds
B3,binding result,human GST-PBD_(367-603),binds
